# Test results published in patent US20100267561A1, “HERBICIDAL PYRIDAZINONE DERIVATIVES” (priority 2007, published 2010).
# Tests used:
# Assay in all cases: Test B pre-/postemergence plant response
# Type in all cases: in vivo
# [1] = tested on: yellow nutsedge (Cyperus esculentus)
# Method in brief: (§1)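 Visual scoring from 0 (no effect) to 100 (complete control) against untreated controls was done 13 to 15 days after greenhouse treatment. Chemicals were formulated in a surfactant-containing non-phytotoxic solvent and applied to soil preemergence or to 1- to 4-leaf (2-18 cm) plants postemergence.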
# kochia (Kochia scoparia) = tested on: kochia (Kochia scoparia)
# Method in brief: as §1
# [2] = tested on: Italian ryegrass (Lolium multiflorum)
# Method in brief: as §1
# [3] = tested on: blackgrass (Alopecurus myosuroides); conditions: for Blackgrass plant response rating: 8 g ai/ha
# Method in brief: as §1
# [4] = tested on: eastern black (E.B.) nightshade (Solanum ptycanthum); conditions: Preemergence
# Method in brief: as §1
# [5] = tested on: morningglory (Ipomoea coccinea)
# Method in brief: as §1
# [6] = tested on: lambsquarters (Chenopodium album)
# Method in brief: as §1
# corn (Zea mays) = tested on: corn (Zea mays)
# Method in brief: as §1
# [7] = tested on: surinam grass (Brachiaria decumbens)
# Method in brief: as §1
# [8] = tested on: johnsongrass (Sorghum halepense)
# Method in brief: as §1
# [9] = tested on: giant foxtail (Setaria faberii)
# Method in brief: as §1
# [10] = tested on: common ragweed (Ambrosia elation)
# Method in brief: as §1
# wild oat (Avena fatua) = tested on: wild oat (Avena fatua)
# Method in brief: as §1
# [11] = tested on: bermudagrass (Cynodon dactylon); conditions: for Bermudagrass plant response rating: 8 g ai/ha
# Method in brief: as §1
# [12] = 8 g ai/ha, postemergence, 0-100 scale
# [13] = Postemergence, 16 g ai/ha, scale 0 to 100
# [14] = Postemergence, 31 g ai/ha, scale 0 to 100
# [15] = Postemergence, 62 g ai/ha, scale 0 to 100, 0 no effect, 100 complete control
# [16] = Preemergence, 31 g ai/ha, scale 0 to 100 (0 no effect, 100 complete control)
# [17] = Preemergence, 62 g ai/ha, scale 0 to 100
# [18] = Preemergence, 8 g ai/ha, scale 0 to 100
# [19] = Preemergence, 16 g ai/ha, scale 0 to 100
# [20] = Preemergence, 31 g ai/ha, 0 to 100 scale, 0 no effect, 100 complete control
# [21] = Preemergence, 16 g ai/ha, scale 0 to 100 (0 no effect, 100 complete control)
smiles,measurement,setting,value
CCOC(=O)Oc1cnn(C)c(=O)c1-n1nc(-c2ccc(Cl)cc2)cc1C [Compound 53],"Nutsedge, Yellow plant response rating",[1]; [12],0
same,"Plant response rating, Nutsedge, Yellow",[1]; [13],0
same,"Plant response rating, Nutsedge, Yellow",[1]; [14],0
same,"Plant response rating, Nutsedge, Yellow",[1]; [15],0
same,"Plant response rating, Nutsedge, Yellow",[1]; [16],0
same,"Plant response rating, Nutsedge, Yellow",[1]; [17],0
same,"Nutsedge, Yellow plant response rating",[1]; [18],0
same,"Nutsedge, Yellow plant response rating",[1]; [19],0
same,Kochia plant response rating,kochia (Kochia scoparia); [12],0
same,"Plant response rating, Kochia",kochia (Kochia scoparia); [13],0
same,"Plant response rating, Kochia",kochia (Kochia scoparia); [14],0
same,"Plant response rating, Kochia",kochia (Kochia scoparia); [15],0
same,"Plant response rating, Kochia",kochia (Kochia scoparia); [20],0
same,"Ryegrass, Italian plant response rating",[2]; [12],85
same,"Plant response rating, Ryegrass, Italian",[2]; [13],90
same,"Plant response rating, Ryegrass, Italian",[2]; [14],100
same,"Plant response rating, Ryegrass, Italian",[2]; [15],100
same,"Plant response rating, Ryegrass, Italian",[2]; [16],100
same,"Plant response rating, Ryegrass, Italian",[2]; [17],100
same,"Ryegrass, Italian plant response rating",[2]; [18],80
same,"Ryegrass, Italian plant response rating",[2]; [19],100
same,Blackgrass plant response rating,"[3]; postemergence, 0-100 scale",30
same,"Plant response rating, Blackgrass",[3]; [13],60
same,"Plant response rating, Blackgrass",[3]; [14],95
same,"Plant response rating, Blackgrass",[3]; [15],95
same,"Plant response rating, Blackgrass",[3]; [21],100
same,"Plant response rating, Blackgrass",[3]; [20],100
same,"Plant response rating, Blackgrass",[3]; [17],100
same,Blackgrass plant response rating,"[3]; Preemergence, scale 0 to 100",95
same,"Plant response rating, Nightshade, E. B.","[4]; 31 g ai/ha, scale 0 to 100 (0 no effect, 100 complete control)",15
same,"Plant response rating, Nightshade, E. B.","[4]; 62 g ai/ha, scale 0 to 100",20
same,"Nightshade, E. B. plant response rating","[4]; 8 g ai/ha, scale 0 to 100",0
same,"Nightshade, E. B. plant response rating","[4]; 16 g ai/ha, scale 0 to 100",0
same,Morningglory plant response rating,[5]; [12],0
same,"Plant response rating, Morningglory",[5]; [13],0
same,"Plant response rating, Morningglory",[5]; [14],0
same,"Plant response rating, Morningglory",[5]; [15],0
same,"Plant response rating, Morningglory",[5]; [16],0
same,"Plant response rating, Morningglory",[5]; [17],0
same,Morningglory plant response rating,[5]; [18],0
same,Morningglory plant response rating,[5]; [19],0
same,Lambsquarters plant response rating,[6]; [12],0
same,"Plant response rating, Lambsquarters",[6]; [13],0
same,"Plant response rating, Lambsquarters",[6]; [14],0
same,"Plant response rating, Lambsquarters",[6]; [15],0
same,"Plant response rating, Lambsquarters",[6]; [20],0
same,"Plant response rating, Lambsquarters",[6]; [17],35
same,Lambsquarters plant response rating,[6]; [18],0
same,Lambsquarters plant response rating,[6]; [19],0
same,Corn plant response rating,corn (Zea mays); [12],20
same,"Plant response rating, Corn",corn (Zea mays); [13],100
same,"Plant response rating, Corn",corn (Zea mays); [14],100
same,"Plant response rating, Corn",corn (Zea mays); [15],100
same,"Plant response rating, Corn",corn (Zea mays); [20],55
same,"Plant response rating, Corn",corn (Zea mays); [17],60
same,Corn plant response rating,corn (Zea mays); [18],0
same,Corn plant response rating,corn (Zea mays); [19],45
same,Surinam Grass plant response rating,[7]; [12],75
same,"Plant response rating, Surinam Grass",[7]; [13],98
same,"Plant response rating, Surinam Grass",[7]; [14],100
same,"Plant response rating, Surinam Grass",[7]; [15],100
same,"Plant response rating, Surinam Grass",[7]; [16],60
same,"Plant response rating, Surinam Grass","[7]; Preemergence, 62 g ai/ha, 0 to 100 scale, 0 no effect, 100 complete control",95
same,Surinam Grass plant response rating,[7]; [18],0
same,Surinam Grass plant response rating,[7]; [19],20
same,Johnsongrass plant response rating,[8]; [12],35
same,"Plant response rating, Johnsongrass",[8]; [13],70
same,"Plant response rating, Johnsongrass",[8]; [14],98
same,"Plant response rating, Johnsongrass",[8]; [15],100
same,"Plant response rating, Johnsongrass",[8]; [20],75
same,"Plant response rating, Johnsongrass",[8]; [17],100
same,Johnsongrass plant response rating,[8]; [18],45
same,Johnsongrass plant response rating,[8]; [19],65
same,"Foxtail, Giant plant response rating",[9]; [12],85
same,"Plant response rating, Foxtail, Giant",[9]; [13],95
same,"Plant response rating, Foxtail, Giant",[9]; [14],100
same,"Plant response rating, Foxtail, Giant",[9]; [15],100
same,"Plant response rating, Foxtail, Giant",[9]; [20],45
same,"Plant response rating, Foxtail, Giant",[9]; [17],70
same,"Foxtail, Giant plant response rating",[9]; [18],0
same,"Foxtail, Giant plant response rating",[9]; [19],20
same,Ragweed plant response rating,[10]; [12],0
same,"Plant response rating, Ragweed",[10]; [13],0
same,"Plant response rating, Ragweed",[10]; [14],0
same,"Plant response rating, Ragweed",[10]; [15],0
same,"Plant response rating, Ragweed",[10]; [16],0
same,"Plant response rating, Ragweed",[10]; [17],0
same,Ragweed plant response rating,[10]; [18],0
same,Ragweed plant response rating,[10]; [19],0
same,"Oat, Wild plant response rating",wild oat (Avena fatua); [12],80
same,"Plant response rating, Oat, Wild",wild oat (Avena fatua); [13],90
same,"Plant response rating, Oat, Wild",wild oat (Avena fatua); [14],95
same,"Plant response rating, Oat, Wild",wild oat (Avena fatua); [15],98
same,"Plant response rating, Oat, Wild",wild oat (Avena fatua); [16],80
same,"Plant response rating, Oat, Wild",wild oat (Avena fatua); [17],85
same,"Oat, Wild plant response rating",wild oat (Avena fatua); [18],40
same,"Oat, Wild plant response rating",wild oat (Avena fatua); [19],65
same,Bermudagrass plant response rating,"[11]; postemergence, 0-100 scale",70
same,"Plant response rating, Bermudagrass",[11]; [13],100
same,"Plant response rating, Bermudagrass",[11]; [14],100
same,"Plant response rating, Bermudagrass",[11]; [15],100
same,Bermudagrass plant response rating,"[11]; Preemergence, scale 0 to 100 (0 no effect, 100 complete control)",0
same,"Plant response rating, Bermudagrass",[11]; [21],0
same,"Plant response rating, Bermudagrass",[11]; [20],0
same,"Plant response rating, Bermudagrass",[11]; [17],0
